Where “and” joins values, the source holds several entries; their conditions need not be identical. Equal entries are not always repeated. Inconclusive results and toxic doses are left out.
Tested on: L1210 leukemia ip in BDF1 mice, survival T/C
Test: NCI In Vivo Anticancer Drug Screen. Data for tumor model L1210 Leukemia (intraperitoneal) in B6D2F1 (BDF1) mice
Details: endpoint: mean survival time, higher = longer survival
Summary of the method: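 Mice bearing the transplanted tumor received compound or vehicle. Survival of the treated group was divided by that of the vehicle-treated control group to give the ratio.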

[1] = dose: 100.0 mg/kg/injection, schedule: Q01DX001 (ip), vehicle: Klucel (hydroxypropylcellulose) (HPC)
[2] = dose: 200.0 mg/kg/injection, schedule: Q01DX001 (ip), vehicle: Klucel (hydroxypropylcellulose) (HPC)
[3] = dose: 400.0 mg/kg/injection, schedule: Q01DX001 (ip), vehicle: Klucel (hydroxypropylcellulose) (HPC)
[4] = dose: 100.0 mg/kg/injection, schedule: Q01DX009 (ip), vehicle: saline
[5] = dose: 100.0 mg/kg/injection, schedule: Q04DX003 (ip), vehicle: saline
[6] = dose: 200.0 mg/kg/injection, schedule: Q01DX009 (ip), vehicle: saline
[7] = dose: 200.0 mg/kg/injection, schedule: Q04DX003 (ip), vehicle: saline
[8] = dose: 400.0 mg/kg/injection, schedule: Q01DX009 (ip), vehicle: saline
[9] = dose: 100.0 mg/kg/injection, schedule: Q04DX003 (ip), vehicle: Klucel (hydroxypropylcellulose) (HPC)
[10] = dose: 200.0 mg/kg/injection, schedule: Q04DX003 (ip), vehicle: Klucel (hydroxypropylcellulose) (HPC)
[11] = dose: 100.0 mg/kg/injection, schedule: Q04DX002 (ip), vehicle: Klucel (hydroxypropylcellulose) (HPC)
[12] = dose: 200.0 mg/kg/injection, schedule: Q04DX002 (ip), vehicle: Klucel (hydroxypropylcellulose) (HPC)
[13] = dose: 100.0 mg/kg/injection, schedule: Q04DX002 (ip), vehicle: saline with Tween-80
[14] = dose: 200.0 mg/kg/injection, schedule: Q04DX002 (ip), vehicle: saline with Tween-80
[15] = dose: 400.0 mg/kg/injection, schedule: Q04DX002 (ip), vehicle: saline with Tween-80
[16] = dose: 100.0 mg/kg/injection, schedule: Q01DX001 (ip), vehicle: saline
[17] = dose: 400.0 mg/kg/injection, schedule: Q01DX001 (ip), vehicle: saline
[18] = dose: 100.0 mg/kg/injection, schedule: Q01DX009 (ip), vehicle: Klucel (hydroxypropylcellulose) (HPC)
[19] = dose: 200.0 mg/kg/injection, schedule: Q01DX009 (ip), vehicle: Klucel (hydroxypropylcellulose) (HPC)
[20] = dose: 400.0 mg/kg/injection, schedule: Q01DX009 (ip), vehicle: Klucel (hydroxypropylcellulose) (HPC)
[21] = dose: 50.0 mg/kg/injection, schedule: Q01DX001 (ip), vehicle: saline
[22] = dose: 100.0 mg/kg/injection, schedule: Q01DX001 (ip), vehicle: carboxymethylcellulose (CMC)
[23] = dose: 200.0 mg/kg/injection, schedule: Q01DX001 (ip), vehicle: carboxymethylcellulose (CMC)
[24] = dose: 200.0 mg/kg/injection, schedule: Q01DX001 (ip), vehicle: saline
[25] = dose: 400.0 mg/kg/injection, schedule: Q01DX001 (ip), vehicle: carboxymethylcellulose (CMC)
[26] = dose: 50.0 mg/kg/injection, schedule: Q01DX009 (ip), vehicle: saline

SMILES: CCNS(=O)(=O)c1cccc(C(=S)OCC)c1
- T/C [1]: 105 % of control
- T/C [2]: 101 % of control
- T/C [3]: 108 % of control

SMILES: O=S(=O)(CC(Br)c1ccccc1)c1ccccc1 (stereo not drawn)
- T/C [4]: 92 % of control
- T/C [5]: 101 % of control
- T/C [6]: 95 % of control
- T/C [7]: 104 % of control
- T/C [8]: 94 % of control
- T/C (dose: 400.0 mg/kg/injection, schedule: Q04DX003 (ip), vehicle: saline): 97 % of control

SMILES: Clc1ccc(N2CCN(CCCN3CCN(c4cccc(Cl)c4)CC3)CC2)cc1
- T/C [9]: 88 % of control
- T/C [10]: 91 % of control

SMILES: O=C(O)CCNc1ccc(Cl)cc1[N+](=O)[O-]
- T/C [11]: 97 % of control
- T/C [12]: 120 % of control

SMILES: Cc1c(Cl)cccc1NC(=O)NCCc1ccccc1
- T/C (dose: 100.0 mg/kg/injection, schedule: Q01DX009 (ip), vehicle: saline with Tween-80): 94 % of control and 101 % of control
- T/C [13]: 100 % of control and 103 % of control
- T/C (dose: 100.0 mg/kg/injection, schedule: Q04DX003 (ip), vehicle: saline with Tween-80): 100 % of control
- T/C (dose: 200.0 mg/kg/injection, schedule: Q01DX009 (ip), vehicle: saline with Tween-80): 101 % of control and 104 % of control
- T/C [14]: 93 % of control and 97 % of control
- T/C (dose: 200.0 mg/kg/injection, schedule: Q04DX003 (ip), vehicle: saline with Tween-80): 101 % of control
- T/C (dose: 400.0 mg/kg/injection, schedule: Q01DX009 (ip), vehicle: saline with Tween-80): 100 % of control and 101 % of control
- T/C [15]: 96 % of control and 97 % of control
- T/C (dose: 400.0 mg/kg/injection, schedule: Q04DX003 (ip), vehicle: saline with Tween-80): 101 % of control

SMILES: Oc1ccccc1Sc1ccccc1O
- T/C [16]: 92 % of control
- T/C [17]: 97 % of control

SMILES: O=C(c1cccnc1)C1Cc2ccccc2C1=O (stereo not drawn)
- T/C (dose: 100.0 mg/kg/injection, schedule: Q04DX003 (ip), vehicle: saline sonified): 100 % of control
- T/C (dose: 200.0 mg/kg/injection, schedule: Q04DX003 (ip), vehicle: saline sonified): 96 % of control
- T/C (dose: 400.0 mg/kg/injection, schedule: Q04DX003 (ip), vehicle: saline sonified): 91 % of control

SMILES: CC(C)OB(OC(C)C)OC(C)C
- T/C [18]: 103 % of control
- T/C [9]: 104 % of control
- T/C [19]: 103 % of control
- T/C [10]: 95 % of control
- T/C [20]: 102 % of control
- T/C (dose: 400.0 mg/kg/injection, schedule: Q04DX003 (ip), vehicle: Klucel (hydroxypropylcellulose) (HPC)): 100 % of control

SMILES: CC1(C)CC(O)CC(O)C1 (stereo not drawn)
- T/C (dose: 50.0 mg/kg/injection, schedule: Q01DX001 (ip), vehicle: carboxymethylcellulose (CMC)): 104 % of control
- T/C [21]: 98 % of control
- T/C [22]: 101 % of control
- T/C [16]: 120 % of control
- T/C [23]: 106 % of control
- T/C [24]: 104 % of control
- T/C [25]: 98 % of control
- T/C [17]: 95 % of control

SMILES: CC1CC(C)(C)N/C(=C/C(=O)N2Cc3cc4ccccc4nc3C2)O1 (stereo not drawn)
- T/C [1]: 86 % of control
- T/C [3]: 88 % of control

SMILES: O=C(O)CC(NC(=O)CP(=O)(O)O)C(=O)O (stereo not drawn)
- T/C (dose: 0.39 mg/kg/injection, schedule: Q01DX009 (ip), vehicle: saline): 104 % of control
- T/C (dose: 0.78 mg/kg/injection, schedule: Q01DX009 (ip), vehicle: saline): 96 % of control
- T/C (dose: 1.56 mg/kg/injection, schedule: Q01DX009 (ip), vehicle: saline): 100 % of control
- T/C (dose: 3.12 mg/kg/injection, schedule: Q01DX009 (ip), vehicle: saline): 100 % of control
- T/C (dose: 6.25 mg/kg/injection, schedule: Q01DX009 (ip), vehicle: saline): 100 % of control
- T/C (dose: 12.5 mg/kg/injection, schedule: Q01DX009 (ip), vehicle: saline): 98 % of control
- T/C (dose: 25.0 mg/kg/injection, schedule: Q01DX009 (ip), vehicle: saline): 93 % of control and 94 % of control
- T/C [26]: 96 % of control and 98 % of control
- T/C [4]: 104 % of control and 122 % of control
- T/C [6]: 117 % of control and 122 % of control
- T/C (dose: 225.0 mg/kg/injection, schedule: Q01DX009 (ip), vehicle: saline): 113 % of control
- T/C (dose: 240.0 mg/kg/injection, schedule: Q04DX003 (ip), vehicle: saline): 113 % of control
- T/C (dose: 250.0 mg/kg/injection, schedule: Q01DX009 (ip), vehicle: saline): 109 % of control
- T/C (dose: 275.0 mg/kg/injection, schedule: Q01DX009 (ip), vehicle: saline): 109 % of control
- T/C (dose: 343.0 mg/kg/injection, schedule: Q04DX003 (ip), vehicle: saline): 117 % of control
- T/C [8]: 89 % of control
- T/C (dose: 490.0 mg/kg/injection, schedule: Q04DX003 (ip), vehicle: saline): 113 % of control
- T/C (dose: 700.0 mg/kg/injection, schedule: Q04DX003 (ip), vehicle: saline): 119 % of control

SMILES: Cc1ccc(-c2nnc(-c3ccccc3)n2-c2cc(C(=O)O)ccc2C)cc1
- T/C [1]: 89 % of control
- T/C [18]: 91 % of control
- T/C [2]: 91 % of control
- T/C [19]: 98 % of control
- T/C [3]: 97 % of control
- T/C [20]: 98 % of control

SMILES: O=C(O)c1cccc2c1C(=O)c1c(O)cccc1C2=O
- T/C (dose: 50.0 mg/kg/injection, schedule: Q04DX002 (ip), vehicle: Klucel (hydroxypropylcellulose) (HPC)): 105 % of control
- T/C [11]: 96 % of control
- T/C [12]: 92 % of control

SMILES: CC[N+](C)(C)c1ncnc2nc[nH]c12
- T/C [26]: 103 % of control
- T/C (dose: 50.0 mg/kg/injection, schedule: Q04DX003 (ip), vehicle: saline): 95 % of control
- T/C [16]: 106 % of control
- T/C [4]: 110 % of control
- T/C [5]: 100 % of control
- T/C [24]: 111 % of control
- T/C [7]: 96 % of control

SMILES: Fc1ccccc1N=C=S
- T/C (dose: 75.0 mg/kg/injection, schedule: Q01DX001 (ip), vehicle: other): 104 % of control
- T/C (dose: 150.0 mg/kg/injection, schedule: Q01DX001 (ip), vehicle: other): 93 % of control

SMILES: CC1CC(NC(=O)N(CCCl)N=O)CC(C)(C)C1 (stereo not drawn)
- T/C (dose: 8.0 mg/kg/injection, schedule: Q01DX001 (ip), vehicle: other): 96 % of control
- T/C (dose: 16.0 mg/kg/injection, schedule: Q01DX001 (ip), vehicle: other): 94 % of control
- T/C (dose: 31.0 mg/kg/injection, schedule: Q01DX001 (ip), vehicle: other): 105 % of control
- T/C (dose: 62.0 mg/kg/injection, schedule: Q01DX001 (ip), vehicle: other): 120 % of control
- T/C (dose: 250.0 mg/kg/injection, schedule: Q01DX001 (ip), vehicle: other): 157 % of control
- T/C (dose: 375.0 mg/kg/injection, schedule: Q01DX001 (ip), vehicle: other): 292 % of control
- T/C (dose: 500.0 mg/kg/injection, schedule: Q01DX001 (ip), vehicle: other): 308 % of control
- T/C (dose: 750.0 mg/kg/injection, schedule: Q01DX001 (ip), vehicle: other): 333 % of control

SMILES: CCOC(=O)Nc1cc(NC(c2ccccc2)c2ccccc2)c([N+](=O)[O-])c(NC(=O)OCC)n1
- T/C [22]: 97 % of control
- T/C [23]: 92 % of control
- T/C [25]: 92 % of control

SMILES: O=[N+]([O-])c1ccc(N(CCO)CCO)cc1
- T/C [21]: 96 % of control
- T/C [16]: 100 % of control
- T/C [24]: 100 % of control
- T/C [17]: 96 % of control

SMILES: COc1ccc(OCC(=O)N2CCCC2)cc1
- T/C [11]: 103 % of control
- T/C [12]: 96 % of control
- T/C (dose: 400.0 mg/kg/injection, schedule: Q04DX002 (ip), vehicle: Klucel (hydroxypropylcellulose) (HPC)): 96 % of control

SMILES: Cc1cccc(NC(=O)N(O)C2(C#N)CCCCC2)c1
- T/C [16]: 93 % of control
- T/C [24]: 96 % of control
- T/C [17]: 98 % of control

SMILES: CCC(C)CCC(C)C1CCC2C3CCC4C=C(OC(C)=O)CCC4(C)C3CCC12C (stereo not drawn)
- T/C [13]: 103 % of control
- T/C [14]: 98 % of control
- T/C [15]: 98 % of control

Reference: PubChem BioAssay AID248 (DTP/NCI, 2004)
